Measurements from patent USRE48335E1, “Polymyxin derivatives as antimicrobial compounds” (priority 2014, dated 2020).
≈ marks a conversion by molar mass, not a printed value. Where two headings read alike, the source gives them in different places. Positions of bridges follow the written chain, without caps; N, C: chain ends. Non-standard residues stand in square brackets, D forms with d. Residues, ends and D or L forms follow the SMILES beside them. *: point of attachment. dNva = CCC[C@@H](N)C(=O)O; Octanoyl = CCCCCCCC(=O)*; Dab = NCC[C@H](N)C(=O)O; X43 = O=C(c1cccc(F)c1)*; Abu = CC[C@H](N)C(=O)O; Dap = NC[C@H](N)C(=O)O

Columns and labels:
Acinetobacter baumannii = test system: Acinetobacter baumannii
Description: (§1) MICs of the lipopeptides (trifluoroacetic acid salt, TFA) were determined by broth microdilution in cation-adjusted Mueller-Hinton broth (CAMHB) (Oxoid Australia, Thebarton, SA, Australia) according to Clinical and Laboratory Standards Institute standards (Clinical and Laboratory Standards Institute. Performance standards for antimicrobial susceptibility testing; eighteenth informational supplement M100-S18. Wayne, Pa., 2008). Polymyxin B (sulphate) was employed as control. […]

Enterobacter cloacae = test system: Enterobacter cloacae
Description: as §1

Pseudomonas aeruginosa = test system: Pseudomonas aeruginosa
Description: as §1

Compound	Minimum inhibitory concentration, Ab A ATCC 17978 (Acinetobacter baumannii)	Minimum inhibitory concentration, Ab ATCC 19606 (Acinetobacter baumannii)	Minimum inhibitory concentration, Ab FADDI-AB034 (Acinetobacter baumannii)	Minimum inhibitory concentration, Ec FADDI-EC001 (Enterobacter cloacae)	Minimum inhibitory concentration, Ec FADDI-EC003 (Enterobacter cloacae)	Minimum inhibitory concentration, Ec FADDI-EC006 (Enterobacter cloacae)	Minimum inhibitory concentration, Pa ATCC 27853 (Pseudomonas aeruginosa)	Minimum inhibitory concentration, Pa FADDI-PA022 (Pseudomonas aeruginosa)	Minimum inhibitory concentration, Pa FADDI-PA025 (Pseudomonas aeruginosa)	Minimum inhibitory concentration, Ab A ATCC 17978 (Acinetobacter baumannii; Acinetobacter baumannii ATCC 17978, broth microdilution in CAMHB)	Minimum inhibitory concentration, Ab ATCC 19606 (Acinetobacter baumannii; Acinetobacter baumannii ATCC 19606, broth microdilution in CAMHB)	Minimum inhibitory concentration, Ab FADDI-AB034 (Acinetobacter baumannii; Acinetobacter baumannii FADDI-AB034, broth microdilution in CAMHB)	Minimum inhibitory concentration, Ec FADDI-EC001 (Enterobacter cloacae; Enterobacter cloacae FADDI-EC001, broth microdilution in CAMHB)	Minimum inhibitory concentration, Ec FADDI-EC003 (Enterobacter cloacae; Enterobacter cloacae FADDI-EC003, broth microdilution in CAMHB)	Minimum inhibitory concentration, Ec FADDI-EC006 (Enterobacter cloacae; Enterobacter cloacae FADDI-EC006, broth microdilution in CAMHB)	Minimum inhibitory concentration, Pa ATCC 27853 (Pseudomonas aeruginosa; Pseudomonas aeruginosa ATCC 27853, broth microdilution in CAMHB)	Minimum inhibitory concentration, Pa FADDI-PA022 (Pseudomonas aeruginosa; Pseudomonas aeruginosa FADDI-PA022, broth microdilution in CAMHB)	Minimum inhibitory concentration, Pa FADDI-PA025 (Pseudomonas aeruginosa; Pseudomonas aeruginosa FADDI-PA025, broth microdilution in CAMHB)
CCCCCCCC(=O)N[C@@H](CCN)C(=O)N[C@H](C(=O)N[C@@H](CN)C(=O)N[C@H]1CCNC(=O)[C@H]([C@@H](C)O)NC(=O)[C@H](CCN)NC(=O)[C@H](CCN)NC(=O)[C@H](C)NC(=O)[C@@H](Cc2ccccc2)NC(=O)[C@H](CCN)NC1=O)[C@@H](C)O [Compound 128] (Octanoyl-[Dab]T[Dap][Dab][Dab][dF]A[Dab][Dab]T; lactam 4-C)	0.25 mg/L (≈ 0.221 µM)	0.25 mg/L (≈ 0.221 µM)	0.25 mg/L (≈ 0.221 µM)	<0.125 mg/L	0.25 mg/L (≈ 0.221 µM)	0.5 mg/L (≈ 0.441 µM)	0.5 mg/L (≈ 0.441 µM)	1 mg/L (≈ 0.882 µM)	4 mg/L (≈ 3.53 µM)									
CCCCCCCC(=O)N[C@@H](CCN)C(=O)N[C@H](C(=O)N[C@@H](CCN)C(=O)N[C@H]1CCNC(=O)[C@H]([C@@H](C)O)NC(=O)[C@H](CCN)NC(=O)[C@H](CCN)NC(=O)[C@H](CC)NC(=O)[C@@H](CC(C)C)NC(=O)[C@H](CCN)NC1=O)[C@@H](C)O [Compound 60] (Octanoyl-[Dab]T[Dab][Dab][Dab][dL][Abu][Dab][Dab]T; lactam 4-C)	0.5 mg/L (≈ 0.443 µM)	1 mg/L (≈ 0.887 µM)	0.5 mg/L (≈ 0.443 µM)	<0.125 mg/L	<0.125 mg/L	0.5 mg/L (≈ 0.443 µM)	0.5 mg/L (≈ 0.443 µM)	0.5 mg/L (≈ 0.443 µM)	8 mg/L (≈ 7.1 µM)									
CCCCCCCC(=O)N[C@@H](CCN)C(=O)N[C@H](C(=O)N[C@@H](CN)C(=O)N[C@H]1CCNC(=O)[C@H]([C@@H](C)O)NC(=O)[C@H](CCN)NC(=O)[C@H](CCN)NC(=O)[C@H]([C@@H](C)O)NC(=O)[C@@H](CCC)NC(=O)[C@H](CCN)NC1=O)[C@@H](C)O [Compound 49] (Octanoyl-[Dab]T[Dap][Dab][Dab][dNva]T[Dab][Dab]T; lactam 4-C)	0.5 mg/L (≈ 0.448 µM)	1 mg/L (≈ 0.897 µM)	0.5 mg/L (≈ 0.448 µM)	0.5 mg/L (≈ 0.448 µM)	0.5 mg/L (≈ 0.448 µM)	0.25 mg/L (≈ 0.224 µM)	0.5 mg/L (≈ 0.448 µM)	0.25 mg/L (≈ 0.224 µM)	16 mg/L (≈ 14.3 µM)									
CC[C@@H]1NC(=O)[C@@H](CC(C)C)NC(=O)[C@H](CCN)NC(=O)[C@@H](NC(=O)[C@H](CN)NC(=O)[C@@H](NC(=O)[C@H](CCN)NC(=O)c2cccc(F)c2)[C@@H](C)O)CCNC(=O)[C@H]([C@@H](C)O)NC(=O)[C@H](CCN)NC(=O)[C@H](CCN)NC1=O [Compound 86] (X43-[Dab]T[Dap][Dab][Dab][dL][Abu][Dab][Dab]T; lactam 4-C)	2 mg/L (≈ 1.8 µM)	4 mg/L (≈ 3.61 µM)	1 mg/L (≈ 0.901 µM)	1 mg/L (≈ 0.901 µM)	1 mg/L (≈ 0.901 µM)	1 mg/L (≈ 0.901 µM)	0.5 mg/L (≈ 0.451 µM)	1 mg/L (≈ 0.901 µM)	2 mg/L (≈ 1.8 µM)									
colistin [reference compound]										0.5 mg/L	1 mg/L	0.5 mg/L	0.25 mg/L	<0.125 mg/L	<0.125 mg/L	1 mg/L	1 mg/L	2 mg/L
CCCCCCCC(=O)N[C@@H](CCN)C(=O)N[C@H](C(=O)N[C@@H](CN)C(=O)N[C@H]1CCNC(=O)[C@H]([C@@H](C)O)NC(=O)[C@H](CCN)NC(=O)[C@H](CCN)NC(=O)[C@H](C(C)C)NC(=O)[C@@H](CC(C)C)NC(=O)[C@H](CCN)NC1=O)[C@@H](C)O [Compound 36] (Octanoyl-[Dab]T[Dap][Dab][Dab][dL]V[Dab][Dab]T; lactam 4-C)	0.5 mg/L (≈ 0.443 µM)	0.25 mg/L (≈ 0.222 µM)	0.5 mg/L (≈ 0.443 µM)	0.25 mg/L (≈ 0.222 µM)	<0.125 mg/L	0.25 mg/L (≈ 0.222 µM)	1 mg/L (≈ 0.887 µM)	1 mg/L (≈ 0.887 µM)	4 mg/L (≈ 3.55 µM)									
